Results reported in ChEMBL document CHEMBL4190243, “Natural alkaloids as P-gp inhibitors for multidrug resistance reversal in cancer” (Eur J Med Chem, 2017).

Legend:
[1] = Inhibition of P-gp ATPase activity in rat AS30-D/COL10 cell plasma membrane vesicles
[2] = test system: P388; assay: Potentiation of doxorubicin-induced antitumor activity against mouse P388/DOX25 cells implanted in mouse assessed as increase in mouse survival at 1.6 mg/kg, ip; type: functional
[3] = Inhibition of P-gp in rat AS30-D/COL10 cell plasma membrane vesicles assessed as reduction in [3H]VBL transport
[4] = target: T1, Broad substrate specificity ATP-binding cassette transporter ABCG2 (Homo sapiens, UniProt Q9UNQ0); assay: Inhibition of BCRP (unknown origin)
T1 sequence (Q9UNQ0 whole entry): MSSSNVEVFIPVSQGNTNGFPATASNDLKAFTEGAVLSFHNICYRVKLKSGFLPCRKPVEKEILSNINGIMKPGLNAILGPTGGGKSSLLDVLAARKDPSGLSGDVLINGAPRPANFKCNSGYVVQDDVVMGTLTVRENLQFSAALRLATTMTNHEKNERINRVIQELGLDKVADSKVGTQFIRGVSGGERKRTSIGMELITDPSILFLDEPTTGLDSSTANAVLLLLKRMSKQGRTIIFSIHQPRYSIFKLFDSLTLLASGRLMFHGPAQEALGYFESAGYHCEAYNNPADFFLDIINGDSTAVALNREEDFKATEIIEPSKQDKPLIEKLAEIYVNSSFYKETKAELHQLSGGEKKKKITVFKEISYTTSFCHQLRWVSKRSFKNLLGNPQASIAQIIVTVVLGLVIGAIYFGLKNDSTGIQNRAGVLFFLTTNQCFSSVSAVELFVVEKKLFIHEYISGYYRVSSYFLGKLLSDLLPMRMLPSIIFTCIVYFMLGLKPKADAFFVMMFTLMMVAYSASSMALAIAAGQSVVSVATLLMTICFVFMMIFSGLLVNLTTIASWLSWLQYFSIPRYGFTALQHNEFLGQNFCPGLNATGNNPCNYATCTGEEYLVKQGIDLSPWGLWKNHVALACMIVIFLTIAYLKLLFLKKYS

[5] = test system: KB-V1; assay: Downregulation of P-gp expression in human MDR KBV1 cells after 24 hrs relative to control; type: functional
[6] = Cytotoxicity against human KBv200 cells after 72 hrs by MTT assay; type: functional, cell-based; details: KBv200, 72 h
[7] = test system: Rattus norvegicus; assay: AUC (0 to 72 hrs) in male Sprague-Dawley rat at 50 mg/kg, po by LC-MS/MS method; type: ADME, organism-based; set-up: dose 50 mg/kg, time < 72 hr, route oral; details: in vivo
[8] = Cmax in male Sprague-Dawley rat at 50 mg/kg, po by LC-MS/MS method; type: ADME, organism-based; set-up: dose 50 mg/kg, route oral; details: in vivo
[9] = Tmax in male Sprague-Dawley rat at 50 mg/kg, po by LC-MS/MS method; type: ADME, organism-based; details: in vivo
[10] = Half life in male Sprague-Dawley rat at 50 mg/kg, po by LC-MS/MS method; type: ADME, organism-based; details: in vivo
[11] = test system: Rattus norvegicus; assay: AUC (0 to 72 hrs) in female Sprague-Dawley rat at 50 mg/kg, po by LC-MS/MS method; type: ADME, organism-based; set-up: time < 72 hr, dose 50 mg/kg, route oral; details: in vivo
[12] = Cmax in female Sprague-Dawley rat at 50 mg/kg, po by LC-MS/MS method; type: ADME, organism-based; set-up: dose 50 mg/kg, route oral; details: in vivo
[13] = Tmax in female Sprague-Dawley rat at 50 mg/kg, po by LC-MS/MS method; type: ADME, organism-based; details: in vivo
[14] = Half life in female Sprague-Dawley rat at 50 mg/kg, po by LC-MS/MS method; type: ADME, organism-based; details: in vivo
[15] = test system: Homo sapiens; assay: AUC in healthy human at 30 mg/kg, iv by LC-MS/MS method; type: ADME, organism-based; details: in vivo
[16] = Primary phase half life in healthy human at 30 mg/kg, iv by LC-MS/MS method; type: ADME, organism-based; details: in vivo, read-out: alphat1/2
[17] = Terminal phase half life in healthy human at 30 mg/kg, iv by LC-MS/MS method; type: ADME, organism-based; details: in vivo, read-out: beta t1/2 (converted)
[18] = Potentiation of doxorubicin-induced antitumor activity against human KBv200 cells xenografted in Balb/c nude mouse assessed as tumor growth inhibition at 10 mg/kg, ip once daily for 12 days (reference value: 11.6%); type: functional; details: 288 h, read-out: TGI
[19] = Potentiation of epirubicin-induced antitumor activity against human KBv200 cells in xenograft model assessed as tumor growth inhibition at 10 mg/kg, ip (reference value: 29%); type: functional; details: read-out: TGI
[20] = target: T2, ATP-dependent translocase ABCB1 (Homo sapiens, UniProt P08183); assay: Inhibition of [125I]IAAP labeling to human MDR1 expressed in baculovirus infected insect cell membranes by electrophoresis method
[21] = target: T2, ATP-dependent translocase ABCB1; assay: Inhibition of human MDR1 ATPase activity expressed in baculovirus infected insect cells preincubated for 30 mins followed by ATP addition measured after 20 mins by colorimetric method
[22] = target: T2, ATP-dependent translocase ABCB1; assay: Displacement of 8-azido[alpha-32P]ATP from human MDR1 expressed in baculovirus infected insect cell membranes by phosphorimaging method
[23] = test system: Rattus norvegicus; assay: AUC (0 to 72 hrs) in rat at 50 mg/kg, po by LC-MS/MS method; type: ADME, organism-based; set-up: time < 72 hr, dose 50 mg/kg, route oral; details: in vivo
[24] = Cmax in rat at 50 mg/kg, po by LC-MS/MS method; type: ADME, organism-based; set-up: dose 50 mg/kg, route oral; details: in vivo
[25] = species: Homo sapiens; assay: Inhibition of P-gp in human MCF7/DOX cells assessed as potentiation of doxorubicin-induced cytotoxicity by measuring fold reduction in doxorubicin IC50 at 5 uM; type: cell-based
[26] = species: Homo sapiens; assay: Inhibition of P-gp in human MCF7/DOX cells assessed as potentiation of doxorubicin-induced cytotoxicity by measuring fold reduction in doxorubicin IC50 at 2.5 uM; type: cell-based
[27] = Tmax in rat at 50 mg/kg, po by LC-MS/MS method; type: ADME, organism-based; details: in vivo
[28] = Half life in rat at 50 mg/kg, po by LC-MS/MS method; type: ADME, organism-based; details: in vivo
[29] = Half life in patient with advanced stage of cancer at 500 mg/m2 by HPLC method; type: ADME, organism-based; details: human, in vivo
[30] = test system: NCI/ADR-RES; assay: Potentiation of doxorubicin-induced antitumor activity against human MCF7/ADR cells xenografted in nude mouse assessed as tumor growth inhibition at 30 mg/kg, ip every two days (reference value: -20%); type: functional; details: 48 h, read-out: TGI
[31] = Potentiation of vincristine-induced antitumor activity against human KBv200 cells xenografted in Balb/c nude mouse assessed as tumor growth inhibition at 30 mg/kg, ip every two days (reference value: 20%); type: functional; details: 48 h, read-out: TGI
[32] = Potentiation of paclitaxel-induced antitumor activity against human KBv200 cells in xenograft model assessed as tumor growth inhibition at 35 mg/kg, ip (reference value: 13%); type: functional; details: read-out: TGI
[33] = Inhibition of P-gp in human MCF7/DX1 cells assessed as […] Rh123 accumulation after 30 to 40 mins by FACS analysis; type: cell-based
[34] = Inhibition of P-gp in human MCF7/DX1 cells assessed as [3H]daunomycin accumulation after 40 mins by liquid scintillation counting method; type: cell-based
[35] = Inhibition of P-gp in human MCF7/DX1 cells assessed as doxorubicin accumulation after 30 to 40 mins by FACS analysis; type: cell-based
[36] = Inhibition of P-gp in human MCF7/DX1 cells assessed as BODIPY-FL-verapamil accumulation after 30 to 40 mins by FACS analysis; type: cell-based
[37] = Inhibition of [125I]IAAP labeling to human P-gp expressed in baculovirus infected insect cell membranes after 10 mins
[38] = Displacement of [3H]vinblastine from P-gp in human KBV1 cell membrane vesicles; type: cell membranes
[39] = test system: KB-V1; assay: Potentiation of vinblastine-induced antitumor activity against human KBV1 cells xenografted in Ncr nude mouse assessed as growth inhibition at 0.13 mmol/kg by hallow fiber assay; type: functional; details: read-out: GI
[40] = Potentiation of vinblastine-induced antitumor activity against human KB-8-5 cells xenografted in Ncr nude mouse assessed as growth inhibition at 0.13 mmol/kg by hallow fiber assay; type: functional; details: read-out: GI
[41] = test system: KB-V1; assay: Potentiation of vinblastine-induced antitumor activity against human KBV1 cells xenografted in Ncr nude mouse assessed as growth inhibition at 0.136 mmol/kg by hallow fiber assay; type: functional; details: read-out: GI
[42] = species: Homo sapiens; assay: Inhibition of P-gp in human Caco2 cells assessed as reduction in digoxin efflux at 4 uM relative to control; type: cell-based
[43] = target: MRP2 (ABCC2) (Homo sapiens, UniProt Q92887); assay: Inhibition of MRP2 in human Caco2 cells assessed as reduction in pravastatin sodium efflux at 4 uM relative to control; type: cell-based; details: Caco-2 cells, probe pravastatin sodium
MRP2 (ABCC2), sequence (Q92887 whole entry): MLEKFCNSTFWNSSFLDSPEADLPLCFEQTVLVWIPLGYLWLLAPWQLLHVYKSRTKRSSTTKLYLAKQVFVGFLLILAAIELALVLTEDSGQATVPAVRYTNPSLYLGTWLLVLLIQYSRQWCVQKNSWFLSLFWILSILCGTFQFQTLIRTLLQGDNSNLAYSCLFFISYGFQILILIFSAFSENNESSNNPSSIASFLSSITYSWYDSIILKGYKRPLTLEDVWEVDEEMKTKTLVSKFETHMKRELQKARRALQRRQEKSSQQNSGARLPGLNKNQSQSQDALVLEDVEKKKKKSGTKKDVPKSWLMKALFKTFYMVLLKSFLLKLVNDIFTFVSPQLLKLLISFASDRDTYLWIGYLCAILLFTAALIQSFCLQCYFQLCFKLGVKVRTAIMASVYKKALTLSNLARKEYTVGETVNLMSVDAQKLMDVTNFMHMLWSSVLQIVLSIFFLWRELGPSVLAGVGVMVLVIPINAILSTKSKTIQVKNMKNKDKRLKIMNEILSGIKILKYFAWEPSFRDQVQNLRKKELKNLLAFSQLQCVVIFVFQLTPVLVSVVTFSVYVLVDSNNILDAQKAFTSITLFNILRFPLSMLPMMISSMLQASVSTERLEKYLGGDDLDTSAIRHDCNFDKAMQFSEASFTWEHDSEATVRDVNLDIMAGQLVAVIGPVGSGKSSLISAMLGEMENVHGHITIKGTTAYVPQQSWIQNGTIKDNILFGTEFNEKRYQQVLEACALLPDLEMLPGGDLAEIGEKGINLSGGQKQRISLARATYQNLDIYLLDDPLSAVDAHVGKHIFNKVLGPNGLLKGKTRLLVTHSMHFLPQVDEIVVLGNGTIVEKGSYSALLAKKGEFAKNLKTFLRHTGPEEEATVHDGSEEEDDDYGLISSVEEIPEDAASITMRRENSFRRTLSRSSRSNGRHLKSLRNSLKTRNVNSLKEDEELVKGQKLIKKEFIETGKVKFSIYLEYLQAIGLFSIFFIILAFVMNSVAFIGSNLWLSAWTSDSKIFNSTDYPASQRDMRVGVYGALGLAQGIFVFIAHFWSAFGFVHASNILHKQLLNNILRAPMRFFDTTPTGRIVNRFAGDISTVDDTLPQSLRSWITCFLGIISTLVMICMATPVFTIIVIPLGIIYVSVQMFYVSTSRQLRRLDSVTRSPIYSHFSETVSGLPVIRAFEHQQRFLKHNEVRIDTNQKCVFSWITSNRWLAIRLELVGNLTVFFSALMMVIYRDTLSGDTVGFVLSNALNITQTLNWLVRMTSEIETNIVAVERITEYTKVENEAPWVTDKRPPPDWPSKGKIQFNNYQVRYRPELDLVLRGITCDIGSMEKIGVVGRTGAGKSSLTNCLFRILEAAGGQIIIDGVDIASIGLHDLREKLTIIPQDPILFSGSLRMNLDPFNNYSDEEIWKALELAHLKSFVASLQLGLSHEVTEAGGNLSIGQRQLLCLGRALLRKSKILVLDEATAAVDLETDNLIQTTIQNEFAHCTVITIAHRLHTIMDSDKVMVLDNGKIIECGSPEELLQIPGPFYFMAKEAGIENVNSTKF

T2 sequence (P08183 whole entry): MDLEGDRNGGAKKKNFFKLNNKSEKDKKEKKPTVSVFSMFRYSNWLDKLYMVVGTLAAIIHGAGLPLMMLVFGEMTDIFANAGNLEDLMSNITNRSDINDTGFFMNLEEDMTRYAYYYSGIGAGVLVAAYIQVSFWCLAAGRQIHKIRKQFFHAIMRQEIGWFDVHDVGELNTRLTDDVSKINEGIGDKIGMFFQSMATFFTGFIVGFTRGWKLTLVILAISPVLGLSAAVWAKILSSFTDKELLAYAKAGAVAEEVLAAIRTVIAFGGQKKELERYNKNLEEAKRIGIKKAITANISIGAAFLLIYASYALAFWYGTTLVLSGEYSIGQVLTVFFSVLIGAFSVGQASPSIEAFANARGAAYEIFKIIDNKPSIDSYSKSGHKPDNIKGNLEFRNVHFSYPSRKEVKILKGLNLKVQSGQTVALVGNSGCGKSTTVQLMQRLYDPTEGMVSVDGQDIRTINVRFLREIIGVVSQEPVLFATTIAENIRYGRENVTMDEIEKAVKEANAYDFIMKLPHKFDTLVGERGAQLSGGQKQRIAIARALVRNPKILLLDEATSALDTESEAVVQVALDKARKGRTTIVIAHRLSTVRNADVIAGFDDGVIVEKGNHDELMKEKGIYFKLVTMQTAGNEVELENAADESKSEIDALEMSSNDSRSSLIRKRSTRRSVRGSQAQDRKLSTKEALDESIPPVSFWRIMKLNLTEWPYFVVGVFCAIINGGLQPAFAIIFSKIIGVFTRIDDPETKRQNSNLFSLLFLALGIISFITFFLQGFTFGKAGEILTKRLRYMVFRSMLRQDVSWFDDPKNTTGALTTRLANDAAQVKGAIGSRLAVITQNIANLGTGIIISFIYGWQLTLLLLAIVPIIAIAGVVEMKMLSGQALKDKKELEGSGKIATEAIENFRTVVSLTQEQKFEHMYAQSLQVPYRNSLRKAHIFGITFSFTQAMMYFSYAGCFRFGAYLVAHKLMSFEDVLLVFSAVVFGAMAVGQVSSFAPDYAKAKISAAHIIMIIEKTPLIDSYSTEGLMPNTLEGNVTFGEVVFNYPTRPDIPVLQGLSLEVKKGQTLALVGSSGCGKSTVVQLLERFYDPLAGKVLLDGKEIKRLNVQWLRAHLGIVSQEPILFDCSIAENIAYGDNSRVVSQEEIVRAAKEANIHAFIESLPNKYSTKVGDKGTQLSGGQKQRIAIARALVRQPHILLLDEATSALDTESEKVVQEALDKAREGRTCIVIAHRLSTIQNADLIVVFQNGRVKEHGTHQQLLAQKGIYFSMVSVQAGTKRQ

With `C=C[C@]1(C)C[C@@H](OC(=O)CSCCN(CC)CC)[C@]2(C)[C@H](C)CC[C@]3(CCC(=O)[C@H]32)[C@@H](C)[C@@H]1O` [TIAMULIN] the IC50 [1] was 540 nM, the survival at 1.6 mg/kg [2] was 29% and the IC50 [3] was 6200 nM.

`COC(=O)[C@H]1[C@H]2C[C@@H]3c4[nH]c5cc(OC)ccc5c4CCN3C[C@H]2C[C@@H](OC(=O)c2cc(OC)c(OC)c(OC)c2)[C@@H]1OC` [RESERPINE] showed an IC50 [4] of 12600 nM.

For `CN[C@@H]1C[C@H]2O[C@@](C)([C@@H]1OC)n1c3ccccc3c3c4c(c5c6ccccc6n2c5c31)C(=O)NC4` [STAUROSPORINE], the Activity [5] was 50%.

`COc1ccc2cc1Oc1ccc(cc1)C[C@@H]1c3cc(c(OC)cc3CCN1C)Oc1c(OC)c(OC)c(Br)c3c1[C@H](C2)N(C)CC3` gave an IC50 [6] of 2000 nM, an AUC [7] of 6116 µg/h/L and a Cmax [8] of 607 ng/mL. It also gave a Tmax [9] of 3.67 h, a half-life [10] of 8.67 h and an AUC [11] of 21827 µg/h/L. For the same compound, the Cmax [12] was 835 ng/mL, the Tmax [13] was 4.67 h and the half-life [14] was 18.2 h. The AUC [15] was 64 µg/h/L, the half-life [16] was 0.5 h and the half-life [17] was 52 h. For the same compound, the inhibition in vivo at 10 mg/kg [18] was 39% and the inhibition in vivo at 10 mg/kg [19] was 48%.

`Nc1ncnc2c1ncn2[C@@H]1O[C@H](COC(=O)c2ccc(S(=O)(=O)F)cc2)[C@@H](O)[C@H]1O` gave an IC50 [20] of 170 nM, an IC50 [21] of 210 nM and an IC50 [22] of 680 nM.

In the case of `COc1ccc2cc1Oc1ccc(cc1)C[C@@H]1c3cc(c(OC)cc3CCN1C)Oc1c(OC)c(OC)cc3c1[C@H](C2)N(C)CC3` [ISOTETRANDRINE], the AUC [23] is reported as 6279 µg/h/L, the Cmax [24] is reported as 237 ng/mL and the fold change (FC) [25] is reported as 20. It also gave a fold change (FC) [26] of 20, a Tmax [27] of 6 h and a half-life [28] of 20 h. It also gave a half-life [29] of 120 to 168 h, an inhibition in vivo at 30 mg/kg [30] of 58% and an inhibition in vivo at 30 mg/kg [31] of 62%. The inhibition in vivo at 35 mg/kg [32] was 76%.

Work on `COc1ccc2c3c1O[C@@H]1C[C@H](OC(=O)CCCCCCCCC(=O)O[C@H]4C=C[C@@]56CN(C)CCc7ccc(OC)c(c75)O[C@H]6C4)C=C[C@]31CN(C)CC2` yielded an IC50 [33] of 800 nM, an IC50 [34] of 500 to 2000 nM and an IC50 [35] of 500 to 2000 nM. For the same compound, the IC50 [36] was 500 to 2000 nM and the IC50 [37] was 500 nM.

Compound `COc1cc(/C=C/C(=O)OC2C(O)C3CC(OC(=O)c4cc(OC)c(OC)c(OC)c4)CC2N3C)cc(OC)c1OC` (stereo not drawn) has a Ki [38] of 7300 nM, an inhibition in vivo at 130 µmol/kg [39] of no more than 75% and an inhibition in vivo at 130 µmol/kg [40] of no more than 75%. For the same compound, the inhibition in vivo at 136 µmol/kg [41] was no more than 77.7%.

In the case of `O=C1c2ccccc2-n2c1nc1ccccc1c2=O` [TRYPTANTHRIN], the inhibition [42] is reported as greater than 30% and the inhibition at 4 µM [43] is reported as greater than 30%.
